Each block holds one molecule with its values, some of them ahead of it.
Key:
GRF4 [1] = molecular target: T1, GRF4 (Homo sapiens, UniProt Q9Y4G8); experiment: Ras activation assay in living cells (GST-Raf1-RBD pull-down), treatment of GRF4-transfected cells; type: cell-based; details: for Effect of PKG inhibitor on 8-Br-cGMP enhanced activation of Ras by GRF4: H-8 5 μM or Rp-8-Br-cGMPS 25 μM, then 8-Br-cGMP 500 μM; for Effect of PKG inhibitor on 8-Br-cGMP enhanced activation of Ras by GRF4 / cAMP stimulation of GRF4-mediated activation of Ras in the presence of PKA inhibitor: 30 min; for cAMP stimulation of GRF4-mediated activation of Ras in the presence of PKA inhibitor: H-89 10 μM or Rp-8-Br-cAMPS 50 μM, then 8-Br-cAMP 500 μM; for GRF4 stimulation of Ras activation enhanced following treatment / Enhancement of activation of Ras by GRF4 by membrane permeable cNMP analogue: HEK-293T cells transfected with Flag-GRF4; for Enhancement of activation of Ras by GRF4 by membrane permeable cNMP analogue: analogue 500 μM
T1 construct: Flag, HA or myc tags was added to the N-terminus of full length GRF4 using PCR; expressed in transfected cells; host or cells: HEK-293T
T1 sequence (Q9Y4G8 1-1499): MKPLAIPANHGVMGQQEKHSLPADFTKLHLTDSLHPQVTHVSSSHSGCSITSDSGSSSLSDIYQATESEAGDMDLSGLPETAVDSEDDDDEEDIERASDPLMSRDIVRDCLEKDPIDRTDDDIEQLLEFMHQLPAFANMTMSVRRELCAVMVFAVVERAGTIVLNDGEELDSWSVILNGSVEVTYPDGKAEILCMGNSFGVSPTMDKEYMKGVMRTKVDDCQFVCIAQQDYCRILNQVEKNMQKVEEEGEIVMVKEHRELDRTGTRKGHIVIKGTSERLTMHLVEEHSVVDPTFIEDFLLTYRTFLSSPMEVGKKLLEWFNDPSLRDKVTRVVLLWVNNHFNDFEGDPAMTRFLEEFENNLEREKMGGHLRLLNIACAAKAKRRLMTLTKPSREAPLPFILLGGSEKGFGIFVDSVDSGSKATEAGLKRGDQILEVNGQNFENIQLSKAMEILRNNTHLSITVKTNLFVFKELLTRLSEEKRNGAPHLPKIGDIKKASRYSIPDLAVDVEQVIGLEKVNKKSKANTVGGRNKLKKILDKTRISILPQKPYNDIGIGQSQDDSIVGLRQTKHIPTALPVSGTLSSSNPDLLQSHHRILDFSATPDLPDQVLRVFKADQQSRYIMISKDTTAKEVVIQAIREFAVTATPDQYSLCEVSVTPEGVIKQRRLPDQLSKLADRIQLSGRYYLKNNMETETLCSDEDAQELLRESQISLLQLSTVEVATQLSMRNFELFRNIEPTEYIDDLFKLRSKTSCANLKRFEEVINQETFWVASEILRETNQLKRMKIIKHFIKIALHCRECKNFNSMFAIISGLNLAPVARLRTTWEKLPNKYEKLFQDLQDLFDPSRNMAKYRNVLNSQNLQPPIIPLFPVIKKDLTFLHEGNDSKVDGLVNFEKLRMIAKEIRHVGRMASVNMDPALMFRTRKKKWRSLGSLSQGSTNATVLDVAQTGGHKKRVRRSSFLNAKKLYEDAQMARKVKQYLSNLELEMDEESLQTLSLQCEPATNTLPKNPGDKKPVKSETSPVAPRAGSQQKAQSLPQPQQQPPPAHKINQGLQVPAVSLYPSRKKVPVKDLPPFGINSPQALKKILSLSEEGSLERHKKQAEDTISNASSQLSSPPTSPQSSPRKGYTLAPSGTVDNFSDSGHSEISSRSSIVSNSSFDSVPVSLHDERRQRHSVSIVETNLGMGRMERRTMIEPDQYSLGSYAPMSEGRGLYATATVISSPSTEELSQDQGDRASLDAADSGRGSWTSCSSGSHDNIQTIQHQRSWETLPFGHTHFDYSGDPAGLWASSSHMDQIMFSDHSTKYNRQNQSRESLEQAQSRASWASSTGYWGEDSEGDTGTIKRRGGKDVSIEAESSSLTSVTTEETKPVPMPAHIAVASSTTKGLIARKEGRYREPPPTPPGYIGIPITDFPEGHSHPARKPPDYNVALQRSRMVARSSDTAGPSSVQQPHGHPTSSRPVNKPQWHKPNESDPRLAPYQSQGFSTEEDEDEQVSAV
Experimental: Cells were then lysed and lysate incubated with immobilized Ras binding domain (RBD) of Raf1 (GST-Raf1-RBD), which binds activated (GTP-bound) Ras. Co-precipitated activated ras was then detected with anti Ras antibodies (Quality Biotech) (upper panel). Lower 2 panels depict the amounts of total endogenous Ras and of the transfected GRF4 (detected with anti Ras and anti Flag antibodies, respectively).
Cells were transfected (or not) with Flag-GRF4 and serum-starved overnight as in (a) above, pre-treated (or not) with the PKG inhibitors H8 (5 μM) or Rp-cGMPS (25 μM) and then treated (or not) with the cGMP analogue 8-Br-cGMP (500 μM), as in (a) above. Activated Ras was then precipitated with GST-Raf1-RBD (upper panel), as in (a). Lower panels show total endogenous Ras and GRF4 expressed in the cells.
Parallel treatments with 8-Br-cAMP or 8-Br-cGMP were used as positive controls. Lysates of treated cells were then incubated with GST-Raf1-RBD to precipitate activated Ras, and immunoblotted with anti Ras antibodies, as above (upper panel). Lower panels are as in (a) and (b) above.
The membrane permeable 8-Br-cAMP and 8Br-cGMP analogs (Sigma) were used at a concenreation of 500 μM for 15 min. Inhibitors of PKA: H-89 and Rp-8-Br-cAMPS (CalBiochem) were used at 10 μM and 50 μM, respectively, for 30 min. Inhibitors of PKG: H-8 and Rp-8-Br-cGMPS (CalBiochem) were used at 5 μM and 25 μM, respectively, for 30 min. Activators of Adenylyl Cyclase, Forskolin (Sigma), and activator of Guanylyl Cyclase, YC-1 (CalBiochem), were used at 50 μM and 100 μM, respectively, for 15 min.
(§1) HEK-293T cells were transfected as above, serum starved overnight and then subjected to various treatments, as described in the text. Cells were lysed with lysis buffer (25 mM Hepes, pH 7.5, 150 mM NaCl, 1% NP-40, 0.25% Na deoxycholate, 10% glycerol, 25 mM NaF, 10 mM MgCl2, 1 mM EDTA, 1 mM NaVO4, […]) and the level of Ras.GTP or Rap. GTP in the lysates was determined using activation specific probes as described. Briefly, to determined the levels of active Ras (Ras-GTP) in cell, sepharose-bound GST fusion protein of the Ras-binding domain (RBD) of Raf-1 (GST-Raf1-RBD; Upstate Biotechnology Inc.) was used to precipitate Ras-GTP from cell lysates, and the amount of Ras-GTP determined by immunoblotting with anti Ras antibodies (Quality Biotech). Similarly, to determine the level of Rap1-GTP in cell lysates, sepharose-bound GST fusion proteins of the Rap1-binding domain of RaIGDS (GST-RaIGDS-RBD) were used to precipitate Rap1-GTP, which was then detected on a Western blot using anti-Rap1 antibodies (Transduction Lab).

Rap1 = Rap1 activation assay in living cells (GST-RalGDS-RBD pull-down); type: cell-based, human; details: HEK-293T cells expressing GRF4
Experimental: as §1

GRF4 [2] = molecular target: T1, GRF4; experiment: Activation of Ras and MAPK by cNMP analogues in GRF4-transfected HEK-293T cells; type: cell-based; details: HEK-293T cells transfected with GRF4; not in untransfected cells
Experimental: The small GTPase Ras controls the MAPK pathway and exerts its effects on cellular processes primarily through this pathway. MAPK is a downstream kinase of Ras and thus, Ras activation leads to MAPK activation (FIG. 6A). Therefore, we show the GRF4 effects on MAPK activation using assays in which levels of active MAPK in cells is determined using antibodies recognizing phosphorylated (active) MAPK.

GRF4-cNMP-BD = molecular target: T2, GRF4-cNMP-BD (Homo sapiens, UniProt Q9Y4G8); experiment: cAMP-agarose binding assay; details: data not shown
T2 construct: The GST-GRF4-cNMP-BD (residue 101-303); made in house
T2 sequence (Q9Y4G8 101-303): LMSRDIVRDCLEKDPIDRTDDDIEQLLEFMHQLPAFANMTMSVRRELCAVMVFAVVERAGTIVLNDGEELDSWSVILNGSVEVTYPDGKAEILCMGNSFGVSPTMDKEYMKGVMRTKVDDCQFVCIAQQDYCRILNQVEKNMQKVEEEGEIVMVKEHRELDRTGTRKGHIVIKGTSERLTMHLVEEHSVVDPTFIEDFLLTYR
Experimental: Right and left panels in (b) represent two separate experiments.
Following extensive washes in HNTG (20 mM Hepes, pH 7.5, 150 mM NaCl, 0.1% Triton ×100, 10% Glycerol) proteins were eluted off beads with sample buffer, separated on SDS-PAGE and immunoblotted with either anti GST antibodies for the in vitro binding experiments, or with anti GRF4 antibodies for the pull down experiments.

Structure (SMILES): Nc1nc2c(nc(Br)n2[C@@H]2O[C@@H]3COP(O)(=S)O[C@H]3[C@H]2O)c(=O)[nH]1 (single isomer, unassigned) [RP8-Br-cGMPS, Guanosine 3′,5′-cyclic monophosphorothioate, 8-Bromo-, Rp-isomer]
- Effect of PKG inhibitor on 8-Br-cGMP enhanced activation of Ras by GRF4 (GRF4 [1]): lack of effect

Structure (SMILES): Nc1ncnc2c1nc(Br)n2C1OC2COP(O)(=S)OC2C1O (single isomer, unassigned) [Rp8-Br-cAMPS, Adenosine 3′,5′-cyclic monophosphorothioate, 8-Bromo-, Rp-isomer]
- cAMP stimulation of GRF4-mediated activation of Ras in the presence of PKA inhibitor (GRF4 [1]): still able to stimulate

Structure (SMILES): CNCCNS(=O)(=O)c1cccc2cnccc12 [H-8, N-[2-(methylamino)ethyl]-5-isoquinolinesulfonamide]
- Effect of PKG inhibitor on 8-Br-cGMP enhanced activation of Ras by GRF4 (GRF4 [1]): lack of effect

Structure (SMILES): O=S(=O)(NCCNCC=Cc1ccc(Br)cc1)c1cccc2cnccc12 [H-89, N-[2-((Pbromocinnamyi)amino)ethyl]-5-isoquinoiinesulfonamide]
- cAMP stimulation of GRF4-mediated activation of Ras in the presence of PKA inhibitor (GRF4 [1]): still able to stimulate

Continued, in another order:

- GRF4 stimulation of Ras activation enhanced following treatment (GRF4 [1]; 8-Br-cAMP 500 μM 15 min plus H-89 10 μM 30 min pre-treatment): 3.5 fold
- GRF4 stimulation of Ras activation enhanced following treatment (GRF4 [1]; 8-Br-cAMP 500 μM, 15 min): 3.9 fold
- Enhancement of activation of Ras by GRF4 by membrane permeable cNMP analogue (GRF4 [1]; 15 min): greatly enhanced
- Activation of Ras and of MAPK in GRF4-expressing cells (GRF4 [2]): leads to activation
Structure (SMILES): Nc1ncnc2c1nc(Br)n2[C@@H]1O[C@@H]2COP(=O)(O)O[C@H]2[C@H]1O [8-Br-cAMP]
- Stimulation of GRF4-mediated activation of Rap1 (Rap1): not stimulated

- Enhancement of activation of Ras by GRF4 by membrane permeable cNMP analogue (GRF4 [1]; 15 min): greatly enhance
- Activation of Ras and of MAPK in GRF4-expressing cells (GRF4 [2]): leads to activation
Structure (SMILES): Nc1nc2c(nc(Br)n2[C@@H]2O[C@@H]3COP(=O)(O)O[C@H]3[C@H]2O)c(=O)[nH]1 [8-Br-cGMP]

- Competition of cAMP binding to the GRF4-cNMP-BD (GRF4-cNMP-BD): effectively competed
Structure (SMILES): Nc1nc2c(ncn2[C@@H]2O[C@@H]3COP(=O)(O)O[C@H]3[C@H]2O)c(=O)[nH]1 [cGMP, reference compound]
